# Assay results as given in patent publication US10351594B2, “Process for preparing compounds having triple activities of thrombolysis, antithrombosis, and radical scavenging” (Shanghai Lumosa Therapeutics Co., Ltd., priority 2013, dated 2019).
# Like-named read-outs stand apart in the source and are kept apart here.
# Tested on: stroke rats
# [1] = 1 μmol/kg 5Ak after 4 hours from stroke onset, 1st day
# [2] = 1 μmol/kg 5Ak after 4 hours from stroke onset, 2nd day
# [3] = 1 μmol/kg 5Ak after 4 hours from stroke onset, 3rd day
# [4] = 1 μmol/kg 5Ak after 4 hours from stroke onset, 4th day
# [5] = 1 μmol/kg 5Ak after 4 hours from stroke onset, 5th day
# [6] = 1 μmol/kg 5Ak after 4 hours from stroke onset, 6th day
# [7] = 1 μmol/kg 5Ak after 6 hours from stroke onset, 1st day
# [8] = 1 μmol/kg 5Ak after 6 hours from stroke onset, 2nd day
# [9] = 1 μmol/kg 5Ak after 6 hours from stroke onset, 3rd day
# [10] = 1 μmol/kg 5Ak after 6 hours from stroke onset, 4th day
# [11] = 1 μmol/kg 5Ak after 6 hours from stroke onset, 5th day
# [12] = 1 μmol/kg 5Ak after 6 hours from stroke onset, 6th day
# [13] = 1 μmol/kg 5Ak after 24 hours from stroke onset, 1st day
# [14] = 1 μmol/kg 5Ak after 24 hours from stroke onset, 2nd day
# [15] = 1 μmol/kg 5Ak after 24 hours from stroke onset, 3rd day
# [16] = 1 μmol/kg 5Ak after 24 hours from stroke onset, 4th day
# [17] = 1 μmol/kg 5Ak after 24 hours from stroke onset, 5th day
# [18] = 1 μmol/kg 5Ak after 24 hours from stroke onset, 6th day
# 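Note: male SD rats with thrombus-induced cerebral embolism via internal carotid artery, scored daily by Zealonga neurological deficit scale (0 no deficit to 5 death), lower score better.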
# Procedure: The therapeutic effect was evaluated by neurological functional scores. The lower the score was, the better the therapeutic effect was. A 10% chloral hydrate solution was injected intraperitoneally into male SD rats at a dosage of 400 mg/kg body weight for anesthesia. A longitudinal incision was made at the center of the neck, and the right common carotid artery trunk was separated (about 3 cm in length). External carotid artery branches were each separated and ligated at the hyoid level, and the internal carotid artery was separated from the swollen part of the neck. The incision of the internal carotid artery and the proximal end of the common carotid artery were clipped respectively with noninvasive arterial clips, and the distal end of the external carotid artery was ligated. A catheter containing 0.5 mL thrombus suspension in normal saline was inserted in the external carotid artery trunk. When the clip on the internal carotid artery was released, the 0.5 mL thrombus suspension in normal saline in the catheter slowly flew from the external carotid artery to its proximal end, and then was injected into the arteries in brain through the internal carotid artery. Subsequently, the proximal end of the internal carotid artery was ligated, the arterial clips on the internal carotid artery and the common carotid artery were released, and blood flow was restored. After the wound was stitched up, 20,000 IU penicillin was intramuscularly injected for prevention from infection. […] Self-comparison was performed each day, and the neurological deficit degree was evaluated by the Zealonga method. A score of 0 indicated no sign of loss in neural function, 1 indicated the front limbs on the undamaged side could not stretch out, 2 indicated walking toward the undamaged side, 3 indicated tail-chasing walking in circles toward the undamaged side, 4 indicated involuntary walking with disturbance of consciousness, and 5 indicated death.
compound,measurement,setting,value
"C[C@H](NC(=O)[C@@H]1CCCN1)C(=O)N[C@@H](CCCCN)C(=O)NCCCC[C@H](NC(=O)[C@@H]1Cc2cc(O)c(O)cc2C(C)(C)N1)C(=O)O [Compound 5Ak, 3S-6,7-dihydroxy-1,1-dimethyl-1,2,3,4-tetrahydro-isoquinoline-3-acyl-Lys(Pro-Ala-Lys)]","therapeutic effect, result in words",1 μmol/kg 5Ak after 4 hours from stroke onset,definite therapeutic effect
same,"Daily neural function scores, number of rats under 0 score",[1],3
same,"Daily neural function scores, number of rats under 1 score",[1],5
same,"Daily neural function scores, number of rats under 2 scores",[1],1
same,"Daily neural function scores, number of rats under 3 scores",[1],1
same,"Daily neural function scores, number of rats under 4 scores",[1],0
same,"Daily neural function scores, number of rats under 5 scores",[1],0
same,"Daily neural function scores, number of rats under 0 score",[2],5
same,"Daily neural function scores, number of rats under 1 score",[2],4
same,"Daily neural function scores, number of rats under 2 scores",[2],1
same,"Daily neural function scores, number of rats under 3 scores",[2],0
same,"Daily neural function scores, number of rats under 4 scores",[2],0
same,"Daily neural function scores, number of rats under 5 scores",[2],0
same,"Daily neural function scores, number of rats under 0 score",[3],3
same,"Daily neural function scores, number of rats under 1 score",[3],6
same,"Daily neural function scores, number of rats under 2 scores",[3],1
same,"Daily neural function scores, number of rats under 3 scores",[3],0
same,"Daily neural function scores, number of rats under 4 scores",[3],0
same,"Daily neural function scores, number of rats under 5 scores",[3],0
same,"Daily neural function scores, number of rats under 0 score",[4],8
same,"Daily neural function scores, number of rats under 1 score",[4],1
same,"Daily neural function scores, number of rats under 2 scores",[4],1
same,"Daily neural function scores, number of rats under 3 scores",[4],0
same,"Daily neural function scores, number of rats under 4 scores",[4],0
same,"Daily neural function scores, number of rats under 5 scores",[4],0
same,"Daily neural function scores, number of rats under 0 score",[5],6
same,"Daily neural function scores, number of rats under 1 score",[5],4
same,"Daily neural function scores, number of rats under 2 scores",[5],0
same,"Daily neural function scores, number of rats under 3 scores",[5],0
same,"Daily neural function scores, number of rats under 4 scores",[5],0
same,"Daily neural function scores, number of rats under 5 scores",[5],0
same,"Daily neural function scores, number of rats under 0 score",[6],8
same,"Daily neural function scores, number of rats under 1 score",[6],2
same,"Daily neural function scores, number of rats under 2 scores",[6],0
same,"Daily neural function scores, number of rats under 3 scores",[6],0
same,"Daily neural function scores, number of rats under 4 scores",[6],0
same,"Daily neural function scores, number of rats under 5 scores",[6],0
same,"therapeutic effect, result in words",1 μmol/kg 5Ak after 6 hours from stroke onset,definite therapeutic effect
same,"Daily neural function scores, number of rats under 0 score",[7],0
same,"Daily neural function scores, number of rats under 1 score",[7],4
same,"Daily neural function scores, number of rats under 2 scores",[7],4
same,"Daily neural function scores, number of rats under 3 scores",[7],2
same,"Daily neural function scores, number of rats under 4 scores",[7],0
same,"Daily neural function scores, number of rats under 5 scores",[7],0
same,"Daily neural function scores, number of rats under 0 score",[8],0
same,"Daily neural function scores, number of rats under 1 score",[8],7
same,"Daily neural function scores, number of rats under 2 scores",[8],2
same,"Daily neural function scores, number of rats under 3 scores",[8],1
same,"Daily neural function scores, number of rats under 4 scores",[8],0
same,"Daily neural function scores, number of rats under 5 scores",[8],0
same,"Daily neural function scores, number of rats under 0 score",[9],1
same,"Daily neural function scores, number of rats under 1 score",[9],6
same,"Daily neural function scores, number of rats under 2 scores",[9],2
same,"Daily neural function scores, number of rats under 3 scores",[9],1
same,"Daily neural function scores, number of rats under 4 scores",[9],0
same,"Daily neural function scores, number of rats under 5 scores",[9],0
same,"Daily neural function scores, number of rats under 0 score",[10],4
same,"Daily neural function scores, number of rats under 1 score",[10],4
same,"Daily neural function scores, number of rats under 2 scores",[10],1
same,"Daily neural function scores, number of rats under 3 scores",[10],0
same,"Daily neural function scores, number of rats under 4 scores",[10],0
same,"Daily neural function scores, number of rats under 5 scores",[10],1
same,"Daily neural function scores, number of rats under 0 score",[11],7
same,"Daily neural function scores, number of rats under 1 score",[11],2
same,"Daily neural function scores, number of rats under 2 scores",[11],0
same,"Daily neural function scores, number of rats under 3 scores",[11],0
same,"Daily neural function scores, number of rats under 4 scores",[11],0
same,"Daily neural function scores, number of rats under 5 scores",[11],0
same,"Daily neural function scores, number of rats under 0 score",[12],6
same,"Daily neural function scores, number of rats under 1 score",[12],3
same,"Daily neural function scores, number of rats under 2 scores",[12],0
same,"Daily neural function scores, number of rats under 3 scores",[12],0
same,"Daily neural function scores, number of rats under 4 scores",[12],0
same,"Daily neural function scores, number of rats under 5 scores",[12],0
same,"therapeutic effect, result in words",1 μmol/kg 5Ak after 24 hours from stroke onset,definite therapeutic effect
same,"Daily neural function scores, number of rats under 0 score",[13],1
same,"Daily neural function scores, number of rats under 1 score",[13],4
same,"Daily neural function scores, number of rats under 2 scores",[13],0
same,"Daily neural function scores, number of rats under 3 scores",[13],2
same,"Daily neural function scores, number of rats under 4 scores",[13],1
same,"Daily neural function scores, number of rats under 5 scores",[13],0
same,"Daily neural function scores, number of rats under 0 score",[14],2
same,"Daily neural function scores, number of rats under 1 score",[14],3
same,"Daily neural function scores, number of rats under 2 scores",[14],3
same,"Daily neural function scores, number of rats under 3 scores",[14],1
same,"Daily neural function scores, number of rats under 4 scores",[14],0
same,"Daily neural function scores, number of rats under 5 scores",[14],0
same,"Daily neural function scores, number of rats under 0 score",[15],3
same,"Daily neural function scores, number of rats under 1 score",[15],2
same,"Daily neural function scores, number of rats under 2 scores",[15],3
same,"Daily neural function scores, number of rats under 3 scores",[15],0
same,"Daily neural function scores, number of rats under 4 scores",[15],0
same,"Daily neural function scores, number of rats under 5 scores",[15],0
same,"Daily neural function scores, number of rats under 0 score",[16],2
same,"Daily neural function scores, number of rats under 1 score",[16],3
same,"Daily neural function scores, number of rats under 2 scores",[16],3
same,"Daily neural function scores, number of rats under 3 scores",[16],0
same,"Daily neural function scores, number of rats under 4 scores",[16],0
same,"Daily neural function scores, number of rats under 5 scores",[16],0
same,"Daily neural function scores, number of rats under 0 score",[17],4
same,"Daily neural function scores, number of rats under 1 score",[17],3
same,"Daily neural function scores, number of rats under 2 scores",[17],1
same,"Daily neural function scores, number of rats under 3 scores",[17],0
same,"Daily neural function scores, number of rats under 4 scores",[17],0
same,"Daily neural function scores, number of rats under 5 scores",[17],0
same,"Daily neural function scores, number of rats under 0 score",[18],3
same,"Daily neural function scores, number of rats under 1 score",[18],4
same,"Daily neural function scores, number of rats under 2 scores",[18],1
same,"Daily neural function scores, number of rats under 3 scores",[18],0
same,"Daily neural function scores, number of rats under 4 scores",[18],0
same,"Daily neural function scores, number of rats under 5 scores",[18],0
same,rats that died during successive 6-day treatment,"1 μmol/kg 5Ak once per day after 4 hours from stroke onset, ten rats",no death occurred
same,rats that died during successive 6-day treatment,"1 μmol/kg 5Ak once per day after 6 hours from stroke onset, n=10",one
same,rats that died during successive 6-day treatment,"1 μmol/kg 5Ak once per day after 24 hours from stroke onset, 8 rats",no death occurred
